# Test results taken from US20060004029A1, “Nitrogen-containing aromatic derivatives” (priority 2003, published 2006).
# Tests used:
# [1] = test system: Human Umbilical Vein Endothelial Cells (HUVECs); test: Inhibition against sandwich tube formation by vascular endothelial cells, VEGF-stimulated; type: cell-based; conditions: HUVEC, 25 ng/ml VEGF and 10 ng/ml EGF, 4th day after addition
# Method: Human Umbilical Vein Endothelial Cells (HUVECs) were isolated according to a reported method (Shinseikagaku Jikken Koza [New Biochemistry Experiment Lectures], “Saibo Baiyo Gijutsu” [Cell Culturing Techniques], p. 197-202), • and were cultured in a 5% CO2 incubator (37° C.) using EGM-2 medium (purchased from Clonetics Corp.) until the cells reached confluency.
# An ice-cooled mixture of collagen: 5×RPMI 1640: reconstitution buffer (all purchased from Nitta Gelatin, Inc.) at 7:2:1 was dispensed at 0.4 ml into each well of a 24-well plate. After the solution was gelled by being stationed for 40 minutes in a 5% CO2 incubator (37° C.), HUVEC cell suspension was added at 0.4 ml to each well (using 1 to 1.2×10^5 cells, though the numbers of cells differ slightly according to the HUVEC lot), the HUVEC cell suspension being in human endothelial serum free medium (SFM, purchased from GIBCO BRL) containing added angiogenesis factors [20 ng/ml FGF2 (purchased from GIBCO BRL) and 10 ng/ml EGF (purchased from GIBCO BRL), or 25 ng/ml VEGF (purchased from Wako Pure Chemical Industries Co., Ltd.) and 10 ng/ml EGF, or 30 ng/ml HGF (purchased from R&D Co.) and 10 ng/ml EGF], and cultured overnight in a 5% CO2 incubator (37° C.). On the following day, the medium on the upper layer was aspirated off, and then 0.4 ml of an ice-cooled mixture of collagen: 5×RPMI 1640: reconstitution buffer (all purchased from Nitta Gelatin, Inc.) at 7:2:1 was superposed into each well prior to stationing for 4 hours in a 5% CO2 incubator (37° C.) for gelling. After adding 1.5 ml of an SFM solution containing each of the aforementioned angiogenesis factors and a diluted test substance onto the upper layer, culturing was performed in a 5% CO2 incubator (37° C.). Upon aspirating off the culture supernatant in each well on the 4th day after addition of the test substance, 0.4 ml of a 3.3 mg/ml MTT solution dissolved in PBS (purchased from Sigma Corp.) was added to each well and culturing was performed for approximately 2 hours in a 5% CO2 incubator (37° C.). The tubes formed in the collagen gel of each well were stained by MTT, the tube images were loaded into a computer (Macintosh), and the total length of the tubes was determined by image analysis software “MacScope” (purchased from Mitani Corp.). The ratio of the total length of the tubes formed in the well containing the test substance with respect to the total length of the tubes formed in the well containing no test substance was expressed as a percentage, and the concentration of each test substance required for 50% inhibition of tube formation (IC50) was determined from the ratio value.
# [2] = test system: KP-1/VEGF cells; test: Antitumor activity on KP-1/VEGF cells in subcutaneous xenograft models; type: in vivo, mouse; conditions: oral twice a day, 2 weeks (5 days per week), Balb/c (nu/nu) mice
# Method: VEGF high-expressing pancreatic cancer cells (KP-1/VEGF) suspended in PBS at a concentration of 1×10^7 cells/ml were transplanted under the right flank skin of 6-week-old female Balb/c (nu/nu) mice in a volume of 0.1 ml. When the tumor volume reached approximately 100 mm^3, the test substance was orally administered twice a day over a period of 2 weeks with a schedule of 5 days per week. The test substance was suspended in 0.5% methyl cellulose for an administered volume of 0.1 ml/10 g body weight. The tumor size was measured twice a week using a micrometer caliper. The tumor volume was determined by measuring the long and short diameters of the tumor with a micrometer caliper, and calculating ½×(long diameter×short diameter×short diameter). The experiment was conducted using 10 mice in the control (solvent-administered) group and 5 mice in each test substance-administered group.
structure (smiles),measurement,setting,value
"CNC(=O)n1ccc2cc(Oc3ccnc(NC(=O)N4CCC(O)CC4)c3)ccc21 [Example 39, N1-Methyl-5-(2-((4-hydroxypiperidino)carbonyl)amino-4-pyridyl)oxy-1H-1-indolecarboxamide]",IC50,[1],5.1 nM
"CNC(=O)n1ccc2cc(Oc3ccnc(NC(=O)N4CCC(C)(O)CC4)c3)ccc21 [Example 41, 5-(2-(((4-Hydroxy-4-methylpiperidin-1-yl)carbonyl)amino)pyridin-4-yloxy)-1H-1-indole-1-carboxylic acid methylamide]",IC50,[1],2.1 nM
"CNC(=O)n1ccc2cc(Oc3ccnc(NC(=O)N4CCC(N5CCCC5)CC4)c3)ccc21 [Example 46, N1-Methyl-5-(2-(((4-(pyrrolidin-1-yl)piperidin-1-yl)carbonyl)amino)pyridin-4-yloxy)-1H-1-indolecarboxamide]",IC50,[1],7 nM
same,proportion of the tumor volume after administering test substance to that of control,[2]; 6 mg/kg/day,77.7%
same,proportion of the tumor volume after administering test substance to that of control,[2]; 20 mg/kg/day,59.3%
same,proportion of the tumor volume after administering test substance to that of control,[2]; 60 mg/kg/day,60.0%
same,proportion of the tumor volume after administering test substance to that of control,[2]; 200 mg/kg/day,36.2%
"CNC(=O)n1ccc2cc(Oc3ccnc(NC(=O)N4CCC(N5CCCCC5)CC4)c3)ccc21 [Example 47, N1-Methyl-5-(2-(((4-(piperidin-1-yl)piperidin-1-yl)carbonyl)amino)pyridin-4-yloxy)-1H-1-indolecarboxamide]",IC50,[1],5.8 nM
same,proportion of the tumor volume after administering test substance to that of control,[2]; 6 mg/kg/day,80.5%
same,proportion of the tumor volume after administering test substance to that of control,[2]; 20 mg/kg/day,64.6%
same,proportion of the tumor volume after administering test substance to that of control,[2]; 60 mg/kg/day,45.3%
same,proportion of the tumor volume after administering test substance to that of control,[2]; 200 mg/kg/day,33.6%
"CNC(=O)n1ccc2cc(Oc3ccnc(NC(=O)N4CCOCC4)c3)ccc21 [Example 53, N4-(4-(1-(Methylamino)carbonyl-1H-5-indolyl)oxy-2-pyridyl)-4-morpholinecarboxamide]",IC50,[1],6.7 nM
same,proportion of the tumor volume after administering test substance to that of control,[2]; 6 mg/kg/day,73.1%
same,proportion of the tumor volume after administering test substance to that of control,[2]; 20 mg/kg/day,60.4%
same,proportion of the tumor volume after administering test substance to that of control,[2]; 60 mg/kg/day,48.4%
same,proportion of the tumor volume after administering test substance to that of control,[2]; 200 mg/kg/day,37.9%
